Experimental data reported in patent US4839342A, “Method of increasing tear production by topical administration of cyclosporin” (University of Georgia Research Foundation, Inc., priority 1987, dated 1989).

Tested on: aqueous tear production
Assay: Schirmer tear test in dogs with aqueous tear deficiency / KCS
Format: in vivo, dog
From the text: The Schirmer tear test is a test of aqueous tear production. The test depends upon observing the extent of wetting of a strip of filter paper placed over the lower lid of an eye for a specified time. Standardized strips are commercially available. The strip is folded at a notched marking and is then placed over the edge of the lateral one-third of the eyelid. The strip is usually left in place for a period of time while the patient looks straight ahead in dim light.
The degree of wetting of the paper is measured in mm from the notch. For human patients, a normal end point is 5 mm of wetting at five minutes. For canine patients, the normal tear production is 14 to 20 mm. of wetting at one minute.

[1] = Example 3 English Bulldog, three drops of 2% pilocarpine by mouth, after two hours

SMILES: C[C@@H]1C[C@H]2[C@@H]3CCC4=CC(=O)C=C[C@]4(C)[C@@]3(F)[C@@H](O)C[C@]2(C)[C@@]1(O)C(=O)CO [dexamethasone]
- benefit of treatment (tear deficiency, conjunctivitis) (Example 1 Poodle, topical, both eyes twice daily for nine weeks): without benefit

SMILES: CC[C@@H]1C(=O)OC[C@@H]1Cc1cncn1C [pilocarpine]
- Schirmer tear test value, left eye [1]: 10 mm/minute
- Schirmer tear test value, right eye [1]: 0 mm/minute
- Schirmer tear test values, both eyes (Example 4 Miniature Poodle, one drop 2% pilocarpine by mouth two times daily with ophthalmic petrolatum, after two weeks): 0 mm/minute
